For test [1], the target named is His-GST-TVMV-hRIPK1(1-324) (Homo sapiens (Human), UniProt Q13546). Put plainly: RIPK1 HTRF Binding Assay. The settings on record: HTRF binding, 1 h at rt; read-out: RIPK1 (IC50). Summed up: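 HTRF probe-displacement binding: 1 nM His-GST-TVMV-hRIPK1(1-324) (baculovirus construct), 90.6 nM probe, 0.2 nM anti-GST-Tb in 20 mM HEPES, 10 mM MgCl2, 0.015% Brij-35, 4 mM DTT, 0.05 mg/mL BSA. Incubated 1 h at rt; FRET 520/495 nm ratio, inhibition relative to DMSO-only wells.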
Sequence of His-GST-TVMV-hRIPK1(1-324) (Q13546 1-324): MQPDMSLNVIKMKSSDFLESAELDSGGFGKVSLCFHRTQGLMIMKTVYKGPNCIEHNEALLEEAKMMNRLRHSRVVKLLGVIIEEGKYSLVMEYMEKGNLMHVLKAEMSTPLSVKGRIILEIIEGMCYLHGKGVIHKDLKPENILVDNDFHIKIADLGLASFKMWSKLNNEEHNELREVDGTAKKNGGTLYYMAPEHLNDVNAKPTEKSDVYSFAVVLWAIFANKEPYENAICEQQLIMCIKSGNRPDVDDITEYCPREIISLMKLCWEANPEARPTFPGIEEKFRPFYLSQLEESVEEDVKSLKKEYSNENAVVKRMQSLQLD

Test [2] concerns MLKL phosphorylation in HT29-L23 human colorectal adenocarcinoma cells. The test is described as follows: MLKL Phosphorylation High-Content Assay. It is filed as cell-based. Conditions: 6 h, necroptosis induced with TNFα, SMAC mimetic and Z-VAD, read-out: pMLKL (IC50). Summed up: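 HT29-L23 cells pretreated 30 min at 37 °C with compound (6.25 to 0.106 μM final), then necroptosis induced with TNFα 35 ng/mL, SMAC mimetic 700 nM and Z-VAD 140 nM for 6 h. Fixed cells immunostained for MLKL pS358 and imaged; IC50 and Ymax from 4-parameter logistic fit.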

Experimental findings from patent US11440913B2, “Aminoimidazopyridazines as kinase inhibitors” (BRISTOL-MYERS SQUIBB COMPANY, priority 2017, dated 2022) are described below.

Usually pIC50 stands for the negative decadic logarithm of the IC50, by convention in mol/L.

pIC50: −log10 of the molar value. Read-outs that look alike come from different tables or passages of the source.

As for `COc1nc(C)c(-c2ccc3nc(NC(C)=O)cn3n2)cc1C(=O)NCc1cccnc1OCC1CCCC1` [Example 313, N-{[2-(cyclopentylmethoxy)pyridin-3-yl]methyl}-5-{2-acetamidoimidazo[1,2-b]pyridazin-6-yl}-2-methoxy-6-methylpyridine-3-carboxamide], the pIC50 in test [1] is 8.05; in test [2] (Homo sapiens), 7.66.

Consider `COc1nc(C)c(-c2ccc3nc(NC(C)=O)cn3n2)cc1C(=O)NCc1cccnc1OCC1CCC1` [Example 314, N-{[2-(cyclobutylmethoxy)pyridin-3-yl]methyl}-5-{2-acetamidoimidazo[1,2-b]pyridazin-6-yl}-2-methoxy-6-methylpyridine-3-carboxamide], for which the pIC50 in test [1] is 8.30; in test [2] (Homo sapiens), 8.52.

For the compound `COc1nc(C)c(-c2ccc3nc(NC(C)=O)cn3n2)cc1C(=O)NCc1cc(F)ccc1OCC1CCCC1` [Example 315, N-{[2-(cyclopentylmethoxy)-5-fluorophenyl]methyl}-5-{2-acetamidoimidazo[1,2-b]pyridazin-6-yl}-2-methoxy-6-methylpyridine-3-carboxamide], the pIC50 in test [1] was 8.30; in test [2] (Homo sapiens), 8.05.

As for `COc1nc(C)c(-c2ccc3nc(NC(C)=O)cn3n2)cc1C(=O)NCc1ccccc1OCC1CCCC1` [Example 316, N-{[2-(cyclopentylmethoxy)phenyl]methyl}-5-{2-acetamidoimidazo[1,2-b]pyridazin-6-yl}-2-methoxy-6-methylpyridine-3-carboxamide], the results for the pIC50 in test [1] and in test [2] (Homo sapiens) were 8.40 and 8.10, respectively.

Turning to `COc1nc(C)c(-c2ccc3nc(NC(C)=O)cn3n2)cc1C(=O)NCc1ccc(F)cc1OCC1CC1` [Example 317, N-{[2-(cyclopropylmethoxy)-4-fluorophenyl]methyl}-5-{2-acetamidoimidazo[1,2-b]pyridazin-6-yl}-2-methoxy-6-methylpyridine-3-carboxamide], the figures for the pIC50 in test [1] and in test [2] (Homo sapiens) were 8.52 and 7.72, respectively.

In the case of `COc1nc(C)c(-c2ccc3nc(NC(C)=O)cn3n2)cc1C(=O)NCc1ccccc1OCC1CC1` [Example 318, N-{[2-(cyclopropylmethoxy)phenyl]methyl}-5-{2-acetamidoimidazo[1,2-b]pyridazin-6-yl}-2-methoxy-6-methylpyridine-3-carboxamide], the pIC50 in test [1] was 8.52; in test [2] (Homo sapiens), 8.70.

`COc1nc(C)c(-c2ccc3nc(NC(C)=O)cn3n2)cc1C(=O)NCc1cccc(OC(F)(F)F)c1` [Example 319, 5-{2-acetamidoimidazo[1,2-b]pyridazin-6-yl}-2-methoxy-6-methyl-N-{[3-(trifluoromethoxy)phenyl]methyl}pyridine-3-carboxamide]: the results for the pIC50 in test [1] and in test [2] (Homo sapiens) were 7.82 and 7.54, respectively.

Consider `CC(=O)Nc1cn2nc(-c3cc(C(=O)NCc4cc(F)ccc4OC(F)(F)F)cnc3Cl)ccc2n1` [Example 321, 6-chloro-5-{2-acetamidoimidazo[1,2-b]pyridazin-6-yl}-N-{[5-fluoro-2-(trifluoromethoxy)phenyl]methyl}pyridine-3-carboxamide], for which the pIC50 was 7.36 in test [1] and 6.41 in test [2] (Homo sapiens).

Regarding `CC(=O)Nc1cn2nc(-c3cc(C(=O)NCc4cc(F)ccc4OC(F)(F)F)cnc3Cl)ccc2n1` [Example 322, 6-chloro-5-{2-acetamidoimidazo[1,2-b]pyridazin-6-yl}-N-{[5-fluoro-2-(trifluoromethoxy)phenyl]methyl}pyridine-3-carboxamide], the pIC50 was 8.10 in test [1] and 7.29 in test [2].

As for `CC(=O)Nc1cn2nc(-c3cc(C(=O)NCc4c(F)cccc4OCC(F)(F)F)c(C)nc3C)ccc2n1` [Example 325, 5-{2-acetamidoimidazo[1,2-b]pyridazin-6-yl}-N-{[2-fluoro-6-(2,2,2-trifluoroethoxy)phenyl]methyl}-2,6-dimethylpyridine-3-carboxamide], the values for the pIC50 in test [1] and in test [2] (Homo sapiens) were 8.05 and 7.77, respectively.

For `CC(=O)Nc1cn2nc(-c3cc(C(=O)NCc4cc(OCC5CC5)ccc4F)c(C)nc3C)ccc2n1` [Example 326, N-{[5-(cyclopropylmethoxy)-2-fluorophenyl]methyl}-5-{2-acetamidoimidazo[1,2-b]pyridazin-6-yl}-2,6-dimethylpyridine-3-carboxamide], the pIC50 is 8.22 in test [1] and 8.00 in test [2] (Homo sapiens).

Regarding `CC(=O)OCC(=O)Nc1cn2nc(-c3cc(C(=O)NCc4cc(OC(F)(F)F)ccc4F)c(C)nc3C)ccc2n1` [Example 327, ({6-[5-({[2-fluoro-5-(trifluoromethoxy)phenyl]methyl}carbamoyl)-2,6-dimethylpyridin-3-yl]imidazo[1,2-b]pyridazin-2-yl}carbamoyl)methyl acetate], the pIC50 in test [1] was 8.30; in test [2] (Homo sapiens), 7.60.

As for `CCc1ncc(-c2ccc3nc(NC(C)=O)cn3n2)cc1C(=O)N[C@H](C)c1cc(OC(F)(F)F)ccc1F` [Example 328, 5-{2-acetamidoimidazo[1,2-b]pyridazin-6-yl}-2-ethyl-N-[(1R)-1-[2-fluoro-5-(trifluoromethoxy)phenyl]ethyl]pyridine-3-carboxamide], the pIC50 in test [1] is 7.44; in test [2] (Homo sapiens) it was 6.70.

Regarding `CCc1ncc(-c2ccc3nc(NC(C)=O)cn3n2)cc1C(=O)NCc1cc(C(F)(F)F)ccc1F` [Example 329, 5-{2-acetamidoimidazo[1,2-b]pyridazin-6-yl}-2-ethyl-N-{[2-fluoro-5-(trifluoromethyl)phenyl]methyl}pyridine-3-carboxamide], the pIC50 in test [1] is 7.28; in test [2] (Homo sapiens) it was 7.06.

Turning to `CC(=O)Nc1cn2nc(-c3cnc(C)c(C(=O)N(C)[C@H](C)c4cc(OC(F)(F)F)ccc4F)c3)ccc2n1` [Example 330, 5-{2-acetamidoimidazo[1,2-b]pyridazin-6-yl}-N-[(1R)-1-[2-fluoro-5-(trifluoromethoxy)phenyl]ethyl]-N,2-dimethylpyridine-3-carboxamide], the pIC50 in test [1] was 7.34; in test [2] (Homo sapiens) it was 6.97.

In the case of `Cc1ncc(-c2ccc3nc(NC(=O)CN4CCN(C)CC4)cn3n2)cc1C(=O)N[C@H](C)c1cc(C(F)(F)F)ccc1F` [Example 332, N-[(1R)-1-[2-fluoro-5-(trifluoromethyl)-phenyl]ethyl]-2-methyl-5-{2-[2-(4-methylpiperazin-1-yl)acetamido]imidazo[1,2-b]pyridazin-6-yl}pyridine-3-carboxamide], the pIC50 in test [1] is 6.51; in test [2] (Homo sapiens), 7.60.

With `Cc1ncc(-c2ccc3nc(NC(=O)CN4CCCC4)cn3n2)cc1C(=O)N[C@H](C)c1cc(C(F)(F)F)ccc1F` [Example 333, N-[(1R)-1-[2-fluoro-5-(trifluoromethyl)-phenyl]ethyl]-2-methyl-5-{2-[2-(pynolidin-1-yl)acetamido]imidazo[1,2-b]pyridazin-6-yl}pyridine-3-carboxamide], the pIC50 was 7.04 in test [1] and 6.66 in test [2] (Homo sapiens).

Take `Cc1ncc(-c2ccc3nc(NC(=O)CN4CCC(F)(F)CC4)cn3n2)cc1C(=O)N[C@H](C)c1cc(OC(F)(F)F)ccc1F` [Example 334, 5-{2-[2-(4,4-difluoropiperidin-1-yl)acetamido]-imidazo[1,2-b]pyridazin-6-yl}-N-[(1R)-1-[2-fluoro-5-(trifluoromethoxy)-phenyl]ethyl]-2-methylpyridine-3-carboxamide]: the negative logarithm of the IC50 (pIC50) in test [1] was 7.82; in test [2] (Homo sapiens), 8.00.

Take `Cc1ncc(-c2ccc3nc(NC(=O)CN4CC(F)(F)C4)cn3n2)cc1C(=O)N[C@H](C)c1cc(OC(F)(F)F)ccc1F` [Example 335, 5-{2-[2-(3,3-difluoroazetidin-1-yl)acetamido]-imidazo[1,2-b]pyridazin-6-yl}-N-[(1R)-1-[2-fluoro-5-(trifluoromethoxy)-phenyl]ethyl]-2-methylpyridine-3-carboxamide]: the pIC50 in test [1] is 7.55; in test [2] (Homo sapiens) it was 8.05.

For `Cc1ncc(-c2ccc3nc(NC(=O)CN4CCN(C)CC4)cn3n2)cc1C(=O)N[C@H](C)c1cc(OC(F)(F)F)ccc1F` [Example 336, N-[(1R)-1-[2-fluoro-5-(trifluoromethoxy)-phenyl]ethyl]-2-methyl-5-{2-[2-(4-methylpiperazin-1-yl)acetamido]imidazo[1,2-b]pyridazin-6-yl}pyridine-3-carboxamide], the values for the pIC50 in test [1] and in test [2] (Homo sapiens) were 7.72 and 8.10, respectively.

With `Cc1ncc(-c2ccc3nc(NC(=O)CN(C)C)cn3n2)cc1C(=O)N[C@H](C)c1cc(OC(F)(F)F)ccc1F` [Example 338, 5-{2-[2-(dimethylamino)-acetamido]-imidazo[1,2-b]pyridazin-6-yl}-N-[(1R)-1-[2-fluoro-5-(trifluoromethoxy)-phenyl]ethyl]-2-methylpyridine-3-carboxamide], the pIC50 in test [1] is 7.68; in test [2] (Homo sapiens) it was 7.30.

As to `Cc1ncc(-c2ccc3nc(NC(=O)[C@H](C)O)cn3n2)cc1C(=O)N[C@H](C)c1cc(OC(F)(F)F)ccc1F` [Example 339, N-((R)-1-(2-fluoro-5-(trifluoromethoxy)-phenyl)ethyl)-5-(2-((S)-2-hydroxypropanamido)-imidazo[1,2-b]pyridazin-6-yl)-2-methylnicotinamide], the pIC50 is 7.32 in test [1] and 6.77 in test [2] (Homo sapiens).

With `CNCC(=O)Nc1cn2nc(-c3cnc(C)c(C(=O)N[C@H](C)c4cc(OC(F)(F)F)ccc4F)c3)ccc2n1` [Example 340, N-[(1R)-1-[2-fluoro-5-(trifluoromethoxy)-phenyl]ethyl]-2-methyl-5-{2-[2-(methylamino)-acetamido]imidazo [1,2-b]pyridazin-6-yl}pyridine-3-carboxamide], the pIC50 in test [1] is 7.17; in test [2] (Homo sapiens), 6.59.
